Test results reported in patent US20080241919A1, “Defined media for pluripotent stem cell culture” (The Burnham Institute of Medical Research, priority 2003, published 2008).

Assays:
[1] = tested on: human embryonic stem cells (hESCs); assay: bFGF dose-response, maintenance of undifferentiated hESCs under feeder-free condition on laminin/collagen-coated plates; type: cell-based
Method: (c) bFGF dose-response assays—assessing maintenance of the undifferentiated state.
To discover the minimal essential conditions needed to support the long-term growth of undifferentiated hESCs, morphological analysis was used to assess the developmental stage of hESCs at different times. For these analyses hESCs were grown in a 6- or 12-well plate to maturation (day 6 or 7 after seeding) before being fixed and visualized under a phase contrast microscope. Cellular immunofluorescence was also employed to assess the state of differentiation of hESCs. To perform these studies, hESCs were grown to maturation (day 6 or 7 after seeding) in a 12- or 24-well plate with a round cover slide in the bottom of each well. The cells were then fixed with 4% paraformaldehyde and blocked in PBS buffer containing 0.2% Triton X-100 and 2% BSA. Next, the cells were incubated with a primary antibody (Oct-4, SSEA-1, SSEA-3, SSEA-4, Tra-1-60, Tra-1-81, alkaline phosphatase, Myc, Map-2, Nkx2.5, bFGF (Santa Cruz Biotechnology, Inc.; Santa Cruz, Calif., world wide web: scbt.com) nestin, tyrosine hydroxylase (Chemicon International, Temecula, Calif., world wide web: chemicon.com), beta-tubulin (Sigma), p300, Tip60, or acetylated H4 (K5, 8, 12, 16) (Upstate Biotechnology, Lake Placid, N.Y., world wide web: upstate.com) in wash buffer (0.1% Triton X-100 in PBS) at 4° C. overnight, and then with secondary antibody (Molecular Probe; Eugene, Oreg., world wide web: probes.com) in wash buffer at room temperature for 45 minutes. After further staining with DAPI, cells were mounted onto a microscope slide and visualized under an immunofluorescence and deconvolution microscope. The state of differentiation of hESC was further assessed by generating (via lentiviral-mediated transduction) hESCs carrying a reporter gene (enhanced green fluorescence protein (EGFP)) under control of the Oct-4 promoter. Using these transfected hESCs (carrying Oct-4 driven EGFP), the undifferentiated state of hESCs can be visualized by green fluorescence (indicating Oct-4 expression).
The mechanism by which MEF-conditioned media exerts these effects is unknown, and it could involve the presence of growth factors, removal of toxic factors from the medium, or both. Based on the discovery that bFGF (at relatively high concentrations) promotes undifferentiated growth of hESCs on HFFs, it was decided to test whether bFGF promotes undifferentiated growth of hESCs on matrix proteins in the absence of feeder cells. Gelatin pre-coated plates were incubated with a commercially-available combination of laminin and collagen known as Matrigel (Growth factor reduced, Becton Dickinson) [diluted 1:30 in cold DMEM/F-12] at 4° C. overnight. The growth of hESCs on laminin/collagen-coated plates in the defined hESC media containing 20 ng/ml bFGF was examined. […]
To further assess the effect of bFGF on hESC undifferentiated growth, short-term proliferation assays of hESCs maintained under the feeder-free condition in the defined hESC media containing 0, 4, 10, 20, 30, or 50 ng/ml bFGF were performed. […] To further affirm the role of bFGF on hESC undifferentiated growth, hESCs carrying a reporter gene (enhanced green fluorescence protein [EGFP]) under control of Oct-4 promoter were generated (via lentiviral-mediated transduction).

[2] = tested on: acetylated histone H3 and H4, Myc, Tip60 HAT, p300 HAT; assay: Chromatin state immunofluorescence (acetylated H3/H4, Myc, Tip60, p300) in hESCs; type: cell-based, human; settings: named factor omitted from the media
Description: (c) Presence of both bFGF and insulin is essential for maintenance of an acetylated transcriptionally active chromatin state in undifferentiated hESCs. When either bFGF or insulin is omitted from the media, the differentiated hESC colonies express the differentiation-associated cell surface marker SSEA-1 [B, C] […] (green), Myc [E, F] (red), and histone acetyltransferase (HAT) Tip60 [I, K] (green) and p300 [J, K] […] All cells are indicated by DAPI staining of their nuclei (blue).
To discover the minimal essential conditions needed to support the long-term growth of undifferentiated hESCs, morphological analysis was used to assess the developmental stage of hESCs at different times. For these analyses hESCs were grown in a 6- or 12-well plate to maturation (day 6 or 7 after seeding) before being fixed and visualized under a phase contrast microscope. Cellular immunofluorescence was also employed to assess the state of differentiation of hESCs. […] The state of differentiation of hESC was further assessed by generating (via lentiviral-mediated transduction) hESCs carrying a reporter gene (enhanced green fluorescence protein (EGFP)) under control of the Oct-4 promoter. Using these transfected hESCs (carrying Oct-4 driven EGFP), the undifferentiated state of hESCs can be visualized by green fluorescence (indicating Oct-4 expression). […]

bFGF: basic fibroblast growth factor, growth factor added to the defined hESC media
hESC colonies with completely differentiated morphology that ceased expressing Oct-4 ([1]; absence of bFGF, laminin/collagen, first passage): approximately 80% | percentage of undifferentiated hESC colonies at higher dosages ([1]; bFGF 30 and 50 ng/ml versus 20 ng/ml, 7 days): slightly decreased percentages of undifferentiated hESC colonies | hESC colonies highly compact and undifferentiated (morphology, Oct-4, SSEA-4, Tra-1-60, Tra-1-81 expression) ([1]; defined hESC media containing 20 ng/ml bFGF, laminin/collagen-coated plates, each passage, day 7): Over 80% | differentiation rate of hESCs ([1]; low concentration of bFGF (4 ng/ml), feeder-free, defined media): high differentiation rates | bFGF concentration maintaining the optimal proportion of undifferentiated hESCs, comparable to MEF-CM ([1]; tested 0, 4, 10, 20, 30, 50 ng/ml, 7 days): 20 ng/mL | immunoreactivity to acetylated H3 and H4, Myc, Tip60 HAT, nuclear focal localization of p300 HAT [2]: undetectable or weak immunoreactivity
